From PMC12858405, “Ideal efficacy photoswitching for chromocontrol of TRPC4/5 channel functions in live tissues” (Nature Chemical Biology, 2026)

Columns and labels:
EA-activated TRPC4 = molecular target: T1, EA-activated TRPC4 (Mus musculus, UniProt Q9QUQ5); assay: FLIPR Ca2+ assay, E isomers silencing EA-activated TRPC4 (HEK293-mTRPC4β-YFP); format: cell-based; conditions: Inhibitory IC50 (versus 30 nM EA) TRPC4, E isomer, thermally relaxed; 30 nM EA
T1 construct: expressed in transfected cells; host or cells: HEK293-mTRPC4β-YFP
T1 sequence (Q9QUQ5 1-890 isoform Q9QUQ5-2): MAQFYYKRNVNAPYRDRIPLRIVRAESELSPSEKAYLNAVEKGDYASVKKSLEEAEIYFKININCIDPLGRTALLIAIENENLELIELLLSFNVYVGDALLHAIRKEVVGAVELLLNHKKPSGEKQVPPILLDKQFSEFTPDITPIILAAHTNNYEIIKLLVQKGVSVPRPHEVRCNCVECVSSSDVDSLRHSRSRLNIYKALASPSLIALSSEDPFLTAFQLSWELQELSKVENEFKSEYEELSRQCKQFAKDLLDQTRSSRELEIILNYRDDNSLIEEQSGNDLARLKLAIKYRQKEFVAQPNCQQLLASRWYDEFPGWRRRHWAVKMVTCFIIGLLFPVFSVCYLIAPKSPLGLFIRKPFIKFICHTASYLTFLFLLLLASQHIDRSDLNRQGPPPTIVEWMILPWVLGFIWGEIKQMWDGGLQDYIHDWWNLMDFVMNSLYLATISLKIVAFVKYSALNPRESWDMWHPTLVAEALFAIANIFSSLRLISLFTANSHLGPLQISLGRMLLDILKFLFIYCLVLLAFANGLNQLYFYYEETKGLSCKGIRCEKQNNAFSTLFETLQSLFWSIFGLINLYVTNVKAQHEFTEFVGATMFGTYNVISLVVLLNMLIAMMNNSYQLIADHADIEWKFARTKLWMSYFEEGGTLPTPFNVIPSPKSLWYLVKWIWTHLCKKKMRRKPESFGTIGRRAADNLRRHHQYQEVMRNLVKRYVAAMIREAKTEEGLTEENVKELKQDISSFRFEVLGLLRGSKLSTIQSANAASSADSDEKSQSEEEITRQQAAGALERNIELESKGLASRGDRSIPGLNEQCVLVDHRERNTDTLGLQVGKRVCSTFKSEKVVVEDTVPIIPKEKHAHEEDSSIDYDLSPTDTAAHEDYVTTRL
From the text: (§1) (2) The EC50 values are reported as the midpoints of unconstrained sigmoidal fits to the FLIPR data (Fig 1l and Supplementary Fig. 2): with different levels of channel activation / blocking and very different Hill slopes across different compounds, isomers, and the two channels. This argues that the midpoint values only capture one of the several important factors describing the […]
(§2) We believe that it is possible to derive indicative relative values for binding affinity comparing the E and Z isomers of the same compound using only the combination of FLIPR and ephys data as reported in this paper; this analysis is being developed in a separate paper (see also below).
(§3) Supplementary Table 1. Potencies on TRPC4/5 depicted as either simple agonistic potency (blue) or else inhibitory […]
(§4) . Z*-values refer to mostly-Z-isomer reached at PSS at 365 nm, E*-values refer to experiments that initially applied 100% E-isomer (thermally relaxed), though in both cases the Ca2+ imaging in FLIPR with Fluo4-AM uses 470 nm excitation, which may over time promote photoswitching towards a PSS that is intermediate between those of pure-365 nm and all-E; this is controlled for in the more reliable ephys measurements). (Table indices: a, data from ref7; b, data from ref2; c, data from ref3; d, data from ref8.) EC50 [nM] (for simple agonism or EA-competitive inhibition)
(§5) E-AzPico 90 (vs 30 nM EA) 67 (vs 30 nM EA) […]
(§6) orange: inhibitory effect ag.: agonistic effect
(§7) 1.1.1 From always-active antagonists and agonists towards efficacy photoswitches […]
(§8) photoisomerising an azobenzene that is merged in at the C’4 position yielding the compounds […]
deliver (Fig. 1-2) is a powerful support for an efficacy switch interpretation. To indirectly support this further, we also measured the effects of E-AzPico and E-AzHC against EA-activated TRPC4/5. […]
(§9) to be an EA-competitive binder5,9,10), so their efficacy as single agent photoswitches results from E/Z-competitive binding that is determined by their PSS. […]
(§10) Supplementary Table 2. […] (a Inhibitory effect measured against 30 nM EA; b Inhibitory effect measured against 50 nM EA). […]

EA-activated TRPC5 = molecular target: T2, EA-activated TRPC5 (Mus musculus, UniProt Q9QX29); assay: FLIPR Ca2+ assay, E isomers silencing EA-activated TRPC5 (HEK293-mTRPC5-YFP); format: cell-based
T2 construct: expressed in transfected cells; host or cells: HEK293-mTRPC5-YFP
T2 sequence (Q9QX29 1-975): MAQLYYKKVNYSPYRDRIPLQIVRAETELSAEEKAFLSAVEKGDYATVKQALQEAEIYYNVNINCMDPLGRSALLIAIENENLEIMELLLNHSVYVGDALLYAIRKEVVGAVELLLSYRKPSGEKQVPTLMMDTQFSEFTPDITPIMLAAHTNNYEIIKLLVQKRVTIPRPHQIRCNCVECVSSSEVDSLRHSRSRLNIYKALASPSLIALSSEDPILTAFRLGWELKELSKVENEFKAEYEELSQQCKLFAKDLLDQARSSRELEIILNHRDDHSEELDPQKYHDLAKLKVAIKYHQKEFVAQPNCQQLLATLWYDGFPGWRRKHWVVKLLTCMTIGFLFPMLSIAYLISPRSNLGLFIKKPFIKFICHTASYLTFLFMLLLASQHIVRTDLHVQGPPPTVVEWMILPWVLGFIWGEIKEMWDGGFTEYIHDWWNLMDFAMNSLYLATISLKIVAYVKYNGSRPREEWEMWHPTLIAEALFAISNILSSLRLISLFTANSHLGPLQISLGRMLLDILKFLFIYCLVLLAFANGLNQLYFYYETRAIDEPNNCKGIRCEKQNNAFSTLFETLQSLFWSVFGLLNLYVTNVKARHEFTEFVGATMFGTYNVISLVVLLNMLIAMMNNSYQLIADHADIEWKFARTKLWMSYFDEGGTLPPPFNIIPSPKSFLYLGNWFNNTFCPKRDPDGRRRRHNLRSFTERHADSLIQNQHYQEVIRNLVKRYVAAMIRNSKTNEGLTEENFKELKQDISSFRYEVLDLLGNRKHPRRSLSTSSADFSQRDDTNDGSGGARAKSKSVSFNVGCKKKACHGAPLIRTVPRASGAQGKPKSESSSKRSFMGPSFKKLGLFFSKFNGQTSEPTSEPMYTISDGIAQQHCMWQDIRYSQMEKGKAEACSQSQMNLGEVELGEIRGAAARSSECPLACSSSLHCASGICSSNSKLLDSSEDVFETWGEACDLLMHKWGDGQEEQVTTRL
From the text: Müller, Niemeyer, et al., Schaefer & Thorn-Seshold 2025: Ideal Efficacy Photoswitching of TRPC4/5 in Tissue but it can justify why the affinity of the E/Z-isomers may be similar.
as §1, §2, §3, §4, §5, §6, §7, §8
inhibitory effect for the E-isomers (Supplementary Table 1). Essentially, the effects of Pico145 and AM237 are latent within a single (two-state reversibly photoswitchable) molecule. This combination is what we call an efficacy switch (also see main text Fig. 1e-j).
1.1.2 Mechanistic test for efficacy photoswitching […]
deliver (Fig. 1-2) is a powerful support for an efficacy switch interpretation. To indirectly support this further, we also measured the effects of E-AzPico and E-AzHC against EA-activated TRPC4/5.
Both E-isomers bind to TRPC4/5 and inhibit EA-evoked currents with nanomolar potencies (Supplementary Fig. 2, Supplementary Table 2). This supports the hypothesis that E- […]
as §9, §10

mouse TRPC4β = molecular target: T3, mouse TRPC4β (Mus musculus, UniProt Q9QUQ5); assay: FLIPR Ca2+ influx assay (Fluo-4) with 365/447 nm photoswitching, HEK293 stably expressing mouse TRPC4β; format: cell-based; conditions: Z* = mostly-Z PSS under 365 nm LED; Fluo-4-loaded cells; read-out: Agonistic EC50 (365 nm) TRPC4
T3 construct: expressed in transfected cells; host or cells: HEK293 (ATCC CRL 1573), stably transfected, tetracycline-induced
T3 sequence (Q9QUQ5 1-890 isoform Q9QUQ5-2): T1 sequence (Q9QUQ5 1-890 isoform Q9QUQ5-2)
From the text: (§11) We initially screened for the photoswitchability of activity in cells using a fluorometric imaging plate reader (FLIPR) calcium flux assay, with HEK293 cells stably expressing mouse TRPC4β or mouse TRPC5. Note, however, that the parallel-throughput FLIPR setup is limited to use fixed light-emitting diodes at 365 nm (good Z) and 447 nm (suboptimal E), which, combined with the slowness of the onset and recovery of the fluorescence readout for calcium, causes the FLIPR results to underestimate the reagents’ true speed, degree and completion of TRPC chromocontrol (shown later). […]
(§12) 3 Cultured Cell Lines (primarily for Fig. 1 and Fig. 2)
(§13) 3.1 FLIPR Ca2+ influx assay in cell suspensions.
(§14) We initially screened for photoswitchability of activity in cells, using a fluorometric imaging plate reader (FLIPR) calcium flux assay, with human embryonic kidney cell line HEK293 stably transfected to express mouse TRPC4β- or TRPC5-CFP fusion protein (HEKmTRPC4β-CFP / HEKmTRPC5-CFP, HEK293 obtained from ATCC CRL 1573). The FLIPR setup provides high-content data, but it is limited to using LED wavelengths of 365 nm (best-Z) and 447 nm (suboptimal-E), while imaging at 470 nm excitation (Fluo-4 AM as Ca2+ indicator; this imaging light counteracts both PSSs). Therefore, we expected the FLIPR results to under-estimate the true chromocontrol power accessible to the reagents.
(§15) Cells were grown to 70%-90% confluency in a 75-cm2 culture flask, trypsinised, washed and resuspended in BSA-containing (0.1%) HBS, and supplemented with 3 µM Fluo-4/AM. Stably TRPC-transfected cells were induced with tetracycline 24 h prior to the experiments.42,43 After incubation at 37°C for 30 min [Fluo-4 loading], cells were again washed, resuspended, and dispensed (40 µl/well) into black pigmented, clear-bottom 384-well plates (Greiner µ-clear). To image the Fluo-4 fluorescence during the application and photoswitching of test compounds, these plates were first mounted to a Tecan Fluent 480 (Tecan, Männedorf, Switzerland) liquid handling device, equipped with a 384-tip multichannel arm and a gripper arm. A custom-made plate-imaging device was used for photoswitching during fluorescence imaging, which features LED-based excitation modules (365 nm and 447 nm used here for photoswitching, and 470 nm used here for Fluo-4 readout) projected onto the bottom of the microwell plate, with a cooled scientific complementary metal oxide sensor (sCMOS) camera (Zyla 5.5, Andor, Belfast, UK) equipped with a Nokton 42.5 mm f/0.95 (Voigtlaender, Fürth, Germany) for detection. The LEDs were controlled with an Arduino device and constant current drivers (1 A for 365 and 470 nm LEDs; 3 A for 447 nm LED); detection was under the control of Micromanager 2.0 software. Compounds were serially diluted and applied to the Fluo-4-loaded cell suspensions inside this custom plate-imaging device, then fluorescence intensities (under 470 nm excitation) were continuously recorded during programmed illuminations e.g. with alternating 365 nm and 447 nm phases.
(§16) Concentration-response curves for the Z-isomers (channel activation) were then constructed from the maximal signals during 365 nm phases, after a suitable number of "priming" cycles to allow the system to reach stable performance (Supplementary Fig. 13).
All experiments were conducted as a minimum of 3 independent experiments with each experiment averaging data in technical duplicates.
Cellular TRPC4 photoswitching: HEK cell Ca2+ influx photomodulation […]
Supplementary Figure 12. […]

mouse TRPC5 = molecular target: T4, mouse TRPC5 (Mus musculus, UniProt Q9QX29); assay: FLIPR Ca2+ influx assay (Fluo-4) with 365/447 nm photoswitching, HEK293 stably expressing mouse TRPC5; format: cell-based; conditions: Z* = mostly-Z PSS under 365 nm LED; Fluo-4-loaded cells; read-out: Agonistic EC50 (365 nm) TRPC5
T4 construct: expressed in transfected cells; host or cells: HEK293 (ATCC CRL 1573), stably transfected, tetracycline-induced
T4 sequence (Q9QX29 1-975): T2 sequence (Q9QX29 1-975)
From the text: as §11, §12, §13, §14, §15, §16
All experiments were conducted as a minimum of 3 independent experiments with each experiment averaging data in technical duplicates. […]
Cellular TRPC5 photoswitching: HEK cell Ca2+ influx photomodulation […]
Supplementary Figure 12. […] All […]
four compounds' profiles are consistent with their being ideal efficacy photoswitches (representative traces from one experiment out of ≥3 independent experiments each run in technical duplicates). […]
log c [nM] log c [nM] log c [nM] log c [nM]
Supplementary Figure 13. Dose-response for Z*-AzPico, Z*-AzPico2, Z*-AzHC, and Z*-AzHC2 on TRPC5 and […]

[1] = tested on: Th+ neurons of Th-GCaMP6f-ΔTrpc5 mice; assay: GCaMP6f Ca2+ imaging of Th+ neurons in arcuate nucleus brain slices with 355 nm photoswitching, Th-GCaMP6f-ΔTrpc5 (5ko) mice; conditions: 500 nM; 355 nm pulse
From the text: slices through the ARC of mice expressing the Ca2+ indicator GCaMP6f in Th+ neurons (Fig. 4),
we investigated (1) whether Ca2+ responses at endogenous TRPC5 expression levels can be
TRPC5 expression using TRPC5-deficient brain slices, (3) whether a dose dependence could be
detected, and (4) whether there are properties in channel activity that can be distinguished between
concentration-response measurements (Fig. 5d).

IC50 (EA-activated TRPC4) [nM] | IC50 (EA-activated TRPC5; Inhibitory IC50 (versus 30 nM EA) TRPC5, E isomer, thermally relaxed, 30 nM EA) [nM] | IC50 (EA-activated TRPC5; Inhibitory IC50 (versus 50 nM EA) TRPC5, E isomer, 50 nM EA) [nM] | EC50 (mouse TRPC4β) [nM] | EC50 (mouse TRPC5) [nM] | SMILES | Ca2+ photoresponse in TRPC5-knockout slices [1]
110 | 149 | 177 |  |  | Cn1c(=O)n(CCCO)c(=O)c2c1nc(Oc1ccc(/N=N/c3ccccc3)c(Cl)c1)n2Cc1ccc(Cl)cc1 [E-AzHC] | 
 |  |  | 3 | 4 | Cn1c(=O)n(CCCO)c(=O)c2c1nc(Oc1ccc(/N=N\c3ccccc3)c(OC(F)(F)F)c1)n2Cc1ccc(Cl)cc1 [Z*-AzPico] | maintained
